The results in this text go back to patent US12091410B2, “Heterocyclic compound” (Takeda Pharmaceutical Company Limited, priority 2018, dated 2024).

The test deals with T1, human orexin type 2 receptor (Homo sapiens, UniProt O43614).
T1 construct: expressed in transfected cells
T1 sequence (O43614 1-444): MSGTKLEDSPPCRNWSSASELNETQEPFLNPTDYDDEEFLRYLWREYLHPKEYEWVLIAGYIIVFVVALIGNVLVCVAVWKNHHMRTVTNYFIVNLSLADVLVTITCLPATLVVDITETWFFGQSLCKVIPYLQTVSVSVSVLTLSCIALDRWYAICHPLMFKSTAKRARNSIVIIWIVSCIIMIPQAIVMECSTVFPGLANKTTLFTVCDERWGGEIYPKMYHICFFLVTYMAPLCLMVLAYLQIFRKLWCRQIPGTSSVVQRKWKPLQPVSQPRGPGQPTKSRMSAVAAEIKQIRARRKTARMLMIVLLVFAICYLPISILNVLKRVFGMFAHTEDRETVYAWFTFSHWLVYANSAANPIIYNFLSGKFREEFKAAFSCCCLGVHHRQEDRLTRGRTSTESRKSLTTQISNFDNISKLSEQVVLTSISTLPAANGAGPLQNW
Put plainly: Measurement of orexin type 2 receptor agonist activity (calcium fluorescence, Fluo-4 AM, CHO cells forcibly expressing human OX2 receptor). The test is classed as cell-based. The settings on record: test compound 3 μM, DMSO = 0%, orexin A (human) 10 nM = 100%. The text has this:
To obtain a cell clone stably expressing human orexin type 2 receptor, human orexin type 2 receptor cDNA was inserted into pcDNA3.1(+) plasmid vector (Invitrogen), and a plasmid DNA for expression of human orexin type 2 receptor (pcDNA3.1(+)/hOX2R) was cloned. The plasmid DNA was introduced into CHO-dhfr cell by an electroporation method, and human orexin type 2 receptor expressing clone cells were obtained by limiting dilution method by using G418 drug resistance as a selection marker.
CHO cells forcibly expressing human OX2 receptor were seeded in each well of 384 well black transparent bottom plate (BD Falcon) at 7,500 cells/well, and cultured for one day in a 5% CO2 incubator at 37° C. After removal of the medium in the cell plate, assay buffer A containing a calcium indicator (HBSS (Thermo Fisher Scientific), 20 mM HEPES (Thermo Fisher Scientific), 0.1% BSA (Sigma-Aldrich), 2.5 μg/mL Fluo-4 AM (DOJINDO Chemical), 0.08% Pluronic F127 (DOJINDO Chemical), 1.25 mM probenecid (DOJINDO Chemical)) was added at 30 μL/well. The plate was stood for 30 min in a 5% CO2 incubator at 37° C., and further stood at room temperature for 30 min. A test compound prepared by diluting with assay buffer B (HBSS, 20 mM HEPES, 0.1% BSA) was added at 10 μL/well, and the fluorescence value was measured by FDSSpCELL (Hamamatsu Photonics K. K.) every one sec for 1 min, and thereafter every two sec for 1 min 40 sec. The activity (%) of the test compound was calculated assuming that variation in the fluorescence value when DMSO was added instead of the test compound was 0%, and variation in the fluorescence value when orexin A (human) (PEPTIDE INSTITUTE, INC.) was added at the final concentration of 10 nM was 100%.
Turning to `CC(O)c1nn2c(c1Cl)CCC(NS(C)(=O)=O)C2COC1CCN(c2ncccn2)CC1` (racemic) [Example 50, N-[(6SR,7RS)-3-chloro-2-(1-hydroxyethyl)-7-({[1-(pyrimidin-2-yl)piperidin-4-yl]oxy}methyl)-4,5,6,7-tetrahydropyrazolo[1,5-a]pyridin-6-yl]methanesulfonamide], the “OX2R agonist activity (3 μM, %)” value is on record as 92%.

Take `CCS(=O)(=O)N[C@H]1CCn2cc(C)nc2[C@H]1Cc1cccc(-c2cccc(F)c2)c1` (relative stereo) [Example 58, rel-N-{(7S,8S)-8-[(3′-fluoro[1,1′-biphenyl]-3-yl)methyl]-2-methyl-5,6,7,8-tetrahydroimidazo[1,2-a]pyridin-7-yl}ethanesulfonamide]: the “OX2R agonist activity (3 μM, %)” value came to 95%.

With `Cc1cc2n(n1)[C@@H](COC1CCN(c3ncc(F)cn3)CC1)[C@@H](NS(C)(=O)=O)CC2` (racemic) [Example 4, rac-N-[(6S,7R)-7-({[1-(5-fluoropyrimidin-2-yl)piperidin-4-yl]oxy}methyl)-2-methyl-4,5,6,7-tetrahydropyrazolo[1,5-a]pyridin-6-yl]methanesulfonamide], the “OX2R agonist activity (3 μM, %)” value turned out to be 98%.

As for `CCc1cc2n(n1)[C@@H](COC1CCN(c3ncccn3)CC1)[C@@H](NS(=O)(=O)CC)CC2` (racemic) [Example 45, rac-N-[(6S,7R)-2-ethyl-7-({[1-(pyrimidin-2-yl)piperidin-4-yl]oxy}methyl)-4,5,6,7-tetrahydropyrazolo[1,5-a]pyridin-6-yl]ethanesulfonamide], the “OX2R agonist activity (3 μM, %)” value is 101%.

Regarding `Cc1nnn2c1CC[C@H](NS(C)(=O)=O)[C@@H]2COC1CCN(c2ncc(F)cn2)CC1` (racemic) [Example 10, rac-N-[(6S,7R)-7-({[1-(5-fluoropyrimidin-2-yl)piperidin-4-yl]oxy}methyl)-3-methyl-4,5,6,7-tetrahydro[1,2,3]triazolo[1,5-a]pyridin-6-yl]methanesulfonamide], the “OX2R agonist activity (3 μM, %)” value is given as 69%.

For `CS(=O)(=O)NC1CCc2ncnn2C1CO[C@H]1CC[C@@H](c2ccccc2)CC1` (mixture of isomers) [Example 6, rac-N-[(5R,6S)-5-({[(1s,4S)-4-phenylcyclohexyl]oxy}methyl)-5,6,7,8-tetrahydro[1,2,4]triazolo[1,5-a]pyridin-6-yl]methanesulfonamide], the “OX2R agonist activity (3 μM, %)” value amounted to 85%.

Consider `CCc1cc2n(n1)[C@@H](COC1CCN(c3ncc(F)c(OC)n3)CC1)[C@@H](NS(C)(=O)=O)CC2` (racemic) [Example 40, rac-N-[(6S,7R)-2-ethyl-7-({[1-(5-fluoro-4-methoxypyrimidin-2-yl)piperidin-4-yl]oxy}methyl)-4,5,6,7-tetrahydropyrazolo[1,5-a]pyridin-6-yl]methanesulfonamide], for which the “OX2R agonist activity (3 μM, %)” value was found to be 96%.

As to `Cc1cc2n(n1)[C@@H](Cc1cccc(-c3ccccc3)c1)[C@@H](NS(C)(=O)=O)CC2` (racemic) [Example 7, rac-N-{(6S,7S)-7-[([1,1′-biphenyl]-3-yl)methyl]-2-methyl-4,5,6,7-tetrahydropyrazolo[1,5-a]pyridin-6-yl}methanesulfonamide], the “OX2R agonist activity (3 μM, %)” value turned out to be 77%.

With `CCc1nn2c(c1Cl)CC[C@H](NS(C)(=O)=O)[C@@H]2COC1CCN(c2ncccn2)CC1` (racemic) [Example 32, rac-N-[(6S,7R)-3-chloro-2-ethyl-7-({[1-(pyrimidin-2-yl)piperidin-4-yl]oxy}methyl)-4,5,6,7-tetrahydropyrazolo[1,5-a]pyridin-6-yl]methanesulfonamide], the “OX2R agonist activity (3 μM, %)” value is listed as 92%.

Regarding `CCc1cc2n(n1)[C@@H](COC1CCN(c3ccccn3)CC1)[C@@H](NS(C)(=O)=O)CC2` (racemic) [Example 42, rac-N-[(6S,7R)-2-ethyl-7-({[1-(pyridin-2-yl)piperidin-4-yl]oxy}methyl)-4,5,6,7-tetrahydropyrazolo[1,5-a]pyridin-6-yl]methanesulfonamide], the “OX2R agonist activity (3 μM, %)” value worked out at 80%.

Regarding `Cc1cc2n(n1)C(CO[C@H]1CC[C@@H](c3ccccc3)CC1)C(NS(C)(=O)=O)CC2` (mixture of isomers) [Example 1, rac-N-[(6S,7R)-2-methyl-7-({[(1s,4S)-4-phenylcyclohexyl]oxy}methyl)-4,5,6,7-tetrahydropyrazolo[1,5-a]pyridin-6-yl]methanesulfonamide], the “OX2R agonist activity (3 μM, %)” value is listed as 104%.

Regarding `CCc1cc2n(n1)[C@@H](COC1CCN(c3ncccn3)CC1)[C@@H](NS(C)(=O)=O)CC2` (relative stereo) [Example 59, rel-N-[(6S,7R)-2-ethyl-7-({[1-(pyrimidin-2-yl)piperidin-4-yl]oxy}methyl)-4,5,6,7-tetrahydropyrazolo[1,5-a]pyridin-6-yl]methanesulfonamide], the “OX2R agonist activity (3 μM, %)” value came to 101%.

Consider `CCc1cc2n(n1)[C@@H](COC1CCN(c3ncccn3)CC1)[C@@H](NS(C)(=O)=O)CC2` (racemic) [Example 28, rac-N-[(6S,7R)-2-ethyl-7-({[1-(pyrimidin-2-yl)piperidin-4-yl]oxy}methyl)-4,5,6,7-tetrahydropyrazolo[1,5-a]pyridin-6-yl]methanesulfonamide], for which the “OX2R agonist activity (3 μM, %)” value amounted to 102%.

As to `CC(C)n1cc2c(n1)[C@@H](Cc1cccc(-c3ccccc3)c1)[C@@H](NS(C)(=O)=O)CC2` (racemic) [Example 16, rac-N-[(6S,7S)-7-[([1,1′-biphenyl]-3-yl)methyl]-2-(propan-2-yl)-4,5,6,7-tetrahydro-2H-indazol-6-yl]methanesulfonamide], the “OX2R agonist activity (3 μM, %)” value worked out at 84%.

Regarding `CC(C)c1cc2n(n1)[C@@H](Cc1cccc(-c3ccccc3)c1)[C@@H](NS(C)(=O)=O)CC2` (racemic) [Example 23, rac-N-[(6S,7S)-7-[([1,1′-biphenyl]-3-yl)methyl]-2-(propan-2-yl)-4,5,6,7-tetrahydropyrazolo[1,5-a]pyridin-6-yl]methanesulfonamide], the “OX2R agonist activity (3 μM, %)” value is 109%.

As to `Cc1nn2c(c1Cl)CC[C@H](NS(C)(=O)=O)[C@@H]2COC1CCN(c2ncc(F)cn2)CC1` (racemic) [Example 15, rac-N-[(6S,7R)-3-chloro-7-({[1-(5-fluoropyrimidin-2-yl)piperidin-4-yl]oxy}methyl)-2-methyl-4,5,6,7-tetrahydropyrazolo[1,5-a]pyridin-6-yl]methanesulfonamide], the “OX2R agonist activity (3 μM, %)” value was 91%.

As for `CCc1cc2n(n1)[C@@H](Cc1cccc(-c3ccccc3)c1)[C@@H](NS(C)(=O)=O)CC2` (racemic) [Example 8, rac-N-{(6S,7S)-7-[([1,1′-biphenyl]-3-yl)methyl]-2-ethyl-4,5,6,7-tetrahydropyrazolo[1,5-a]pyridin-6-yl}methanesulfonamide], the “OX2R agonist activity (3 μM, %)” value came out at 92%.

With `CC(C)c1cc2n(n1)[C@@H](COC1CCN(c3ccccc3F)CC1)[C@@H](NS(C)(=O)=O)CC2` (racemic) [Example 29, rac-N-[(6S,7R)-7-({[1-(2-fluorophenyl)piperidin-4-yl]oxy}methyl)-2-(propan-2-yl)-4,5,6,7-tetrahydropyrazolo[1,5-a]pyridin-6-yl]methanesulfonamide], the “OX2R agonist activity (3 μM, %)” value came to 80%.
